# Measured values taken from PubChem BioAssay (NCI).
#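 GI50 = concentration required for 50% inhibition of growth. TGI marks complete inhibition of growth.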
# Columns and labels:
# Assay in all cases: inhibition of tumour cell growth, NCI panel, 384-well format
# SNB-75 CNS = tested on: SNB-75 CNS
# HCT-15 colon = tested on: HCT-15 colon
# ACHN renal = tested on: ACHN renal
# U251 glioblastoma = tested on: U251 glioblastoma
# NCI-H226 lung = tested on: NCI-H226 lung
# NCI-H322M lung = tested on: NCI-H322M lung
# MCF7 breast = tested on: MCF7 breast
# HS 578T breast = tested on: HS 578T breast
# K-562 leukemia = tested on: K-562 leukemia
# BT-549 breast = tested on: BT-549 breast
# OVCAR-3 ovarian = tested on: OVCAR-3 ovarian
# RXF 393 renal = tested on: RXF 393 renal
# HCC-2998 colon = tested on: HCC-2998 colon
# EKVX NSCLC = tested on: EKVX NSCLC
# SF-268 CNS = tested on: SF-268 CNS
# NCI/ADR-RES ovarian = tested on: NCI/ADR-RES ovarian
# SNB-19 CNS = tested on: SNB-19 CNS
# A498 renal = tested on: A498 renal
# SN12C renal = tested on: SN12C renal
# T-47D breast = tested on: T-47D breast
# SF-539 CNS = tested on: SF-539 CNS
# HOP-62 NSCLC = tested on: HOP-62 NSCLC
# COLO 205 colon = tested on: COLO 205 colon
# NCI-H23 lung = tested on: NCI-H23 lung
# OVCAR-4 ovarian = tested on: OVCAR-4 ovarian
# HOP-92 NSCLC = tested on: HOP-92 NSCLC
# UACC-257 melanoma = tested on: UACC-257 melanoma
# A549 NSCLC = tested on: A549 NSCLC
# RPMI-8226 leukemia = tested on: RPMI-8226 leukemia
# SK-OV-3 ovarian = tested on: SK-OV-3 ovarian
# CCRF-CEM leukemia = tested on: CCRF-CEM leukemia
# PC-3 prostate = tested on: PC-3 prostate
# NCI-H460 NSCLC = tested on: NCI-H460 NSCLC
# MOLT-4 leukemia = tested on: MOLT-4 leukemia
# HCT-116 colon = tested on: HCT-116 colon
# IGROV1 ovarian = tested on: IGROV1 ovarian
# MDA-MB-468 breast = tested on: MDA-MB-468 breast
# HL-60(TB) leukemia = tested on: HL-60(TB) leukemia
# OVCAR-5 ovarian = tested on: OVCAR-5 ovarian
# MALME-3M melanoma = tested on: MALME-3M melanoma
# OVCAR-8 ovarian = tested on: OVCAR-8 ovarian
# SF-295 CNS = tested on: SF-295 CNS
# NCI-H522 lung = tested on: NCI-H522 lung
# MDA-MB-435 melanoma = tested on: MDA-MB-435 melanoma
# M14 melanoma = tested on: M14 melanoma
# MDA-MB-231 breast = tested on: MDA-MB-231 breast
# KM12 colon = tested on: KM12 colon
# LOX IMVI melanoma = tested on: LOX IMVI melanoma
# SK-MEL-5 melanoma = tested on: SK-MEL-5 melanoma
# UACC-62 melanoma = tested on: UACC-62 melanoma
# 786-0 renal = tested on: 786-0 renal
# TK-10 renal = tested on: TK-10 renal
# SW-620 colon = tested on: SW-620 colon
# CAKI-1 renal = tested on: CAKI-1 renal
# SK-MEL-28 melanoma = tested on: SK-MEL-28 melanoma
# DU-145 prostate = tested on: DU-145 prostate
# HT29 colon = tested on: HT29 colon
compound,measurement,setting,value
CNC(=O)c1cc(Oc2ccc(NC(=O)Nc3cc(C(C)(C)C)nn3-c3ccc4ncccc4c3)c(F)c2)ccn1,GI50,SNB-75 CNS,1070 nM
same,TGI,SNB-75 CNS,2280 nM
same,GI50,HCT-15 colon,2340 nM
same,TGI,HCT-15 colon,6880 nM
same,GI50,ACHN renal,446 nM
same,TGI,ACHN renal,4260 nM
same,GI50,U251 glioblastoma,1930 nM
same,TGI,U251 glioblastoma,4950 nM
same,GI50,NCI-H226 lung,109 nM
same,TGI,NCI-H226 lung,> 100000 nM
same,GI50,NCI-H322M lung,2580 nM
same,TGI,NCI-H322M lung,9500 nM
same,GI50,MCF7 breast,1590 nM
same,TGI,MCF7 breast,> 100000 nM
same,GI50,HS 578T breast,547 nM
same,TGI,HS 578T breast,1640 nM
same,TGI,K-562 leukemia,> 100000 nM
same,GI50,BT-549 breast,632 nM
same,TGI,BT-549 breast,1880 nM
same,GI50,OVCAR-3 ovarian,2390 nM
same,TGI,OVCAR-3 ovarian,5220 nM
same,GI50,RXF 393 renal,499 nM
same,TGI,RXF 393 renal,1570 nM
same,GI50,HCC-2998 colon,2140 nM
same,TGI,HCC-2998 colon,4730 nM
same,GI50,EKVX NSCLC,1490 nM
same,TGI,EKVX NSCLC,4280 nM
same,GI50,SF-268 CNS,192 nM
same,TGI,SF-268 CNS,752 nM
same,GI50,NCI/ADR-RES ovarian,2530 nM
same,TGI,NCI/ADR-RES ovarian,6340 nM
same,GI50,SNB-19 CNS,3690 nM
same,TGI,SNB-19 CNS,> 100000 nM
same,GI50,A498 renal,2410 nM
same,TGI,A498 renal,9320 nM
same,GI50,SN12C renal,679 nM
same,TGI,SN12C renal,4180 nM
same,GI50,T-47D breast,853 nM
same,TGI,T-47D breast,4820 nM
same,GI50,SF-539 CNS,1400 nM
same,TGI,SF-539 CNS,2730 nM
same,GI50,HOP-62 NSCLC,1740 nM
same,TGI,HOP-62 NSCLC,3970 nM
same,GI50,COLO 205 colon,391 nM
same,TGI,COLO 205 colon,2810 nM
same,GI50,NCI-H23 lung,490 nM
same,TGI,NCI-H23 lung,1580 nM
same,GI50,OVCAR-4 ovarian,2180 nM
same,TGI,OVCAR-4 ovarian,4990 nM
same,GI50,HOP-92 NSCLC,605 nM
same,TGI,HOP-92 NSCLC,> 100000 nM
same,GI50,UACC-257 melanoma,358 nM
same,TGI,UACC-257 melanoma,1710 nM
same,GI50,A549 NSCLC,1180 nM
same,TGI,A549 NSCLC,23200 nM
same,GI50,RPMI-8226 leukemia,1910 nM
same,TGI,RPMI-8226 leukemia,3440 nM
same,GI50,SK-OV-3 ovarian,1050 nM
same,TGI,SK-OV-3 ovarian,> 100000 nM
same,GI50,CCRF-CEM leukemia,1370 nM
same,TGI,CCRF-CEM leukemia,2760 nM
same,GI50,PC-3 prostate,3160 nM
same,TGI,PC-3 prostate,9470 nM
same,GI50,NCI-H460 NSCLC,1160 nM
same,TGI,NCI-H460 NSCLC,4380 nM
same,GI50,MOLT-4 leukemia,1540 nM
same,TGI,MOLT-4 leukemia,2940 nM
same,GI50,HCT-116 colon,937 nM
same,TGI,HCT-116 colon,> 100000 nM
same,GI50,IGROV1 ovarian,442 nM
same,TGI,IGROV1 ovarian,7530 nM
same,GI50,MDA-MB-468 breast,2820 nM
same,TGI,MDA-MB-468 breast,4370 nM
same,GI50,HL-60(TB) leukemia,724 nM
same,TGI,HL-60(TB) leukemia,1530 nM
same,GI50,OVCAR-5 ovarian,884 nM
same,TGI,OVCAR-5 ovarian,58000 nM
same,GI50,MALME-3M melanoma,34.3 nM
same,TGI,MALME-3M melanoma,308 nM
same,GI50,OVCAR-8 ovarian,1740 nM
same,TGI,OVCAR-8 ovarian,4300 nM
same,GI50,SF-295 CNS,2210 nM
same,TGI,SF-295 CNS,> 100000 nM
same,GI50,NCI-H522 lung,1450 nM
same,TGI,NCI-H522 lung,3010 nM
same,GI50,MDA-MB-435 melanoma,477 nM
same,TGI,MDA-MB-435 melanoma,1700 nM
same,GI50,M14 melanoma,97.7 nM
same,TGI,M14 melanoma,1020 nM
same,GI50,MDA-MB-231 breast,558 nM
same,TGI,MDA-MB-231 breast,> 100000 nM
same,TGI,KM12 colon,6360 nM
same,GI50,LOX IMVI melanoma,281 nM
same,TGI,LOX IMVI melanoma,961 nM
same,GI50,SK-MEL-5 melanoma,552 nM
same,TGI,SK-MEL-5 melanoma,1830 nM
same,GI50,UACC-62 melanoma,32.8 nM
same,TGI,UACC-62 melanoma,612 nM
same,GI50,786-0 renal,1470 nM
same,TGI,786-0 renal,5190 nM
same,GI50,TK-10 renal,1210 nM
same,TGI,TK-10 renal,4400 nM
same,GI50,SW-620 colon,2740 nM
same,TGI,SW-620 colon,5710 nM
same,GI50,CAKI-1 renal,359 nM
same,TGI,CAKI-1 renal,> 100000 nM
same,GI50,SK-MEL-28 melanoma,310 nM
same,TGI,SK-MEL-28 melanoma,1200 nM
same,GI50,DU-145 prostate,2220 nM
same,TGI,DU-145 prostate,8640 nM
same,GI50,HT29 colon,520 nM
same,TGI,HT29 colon,> 100000 nM
